Source: patent US20210055311A1, “SCREENING METHOD FOR ESTROGENIC AND ANTI-ESTROGENIC ACTIVITY” (BUNDESINSTITUT FÜR RISIKOBEWERTUNG, priority 2018, published 2021)
Entries after “also recorded” stand apart in the source; their conditions may differ.

Legend:
Format in all cases: cell-based, human
MCF-7/BOS cells = test: Adherens junction morphology upon fulvestrant in parental MCF-7/BOS cells; details: 10^−8 M, 48 h
Method: (§1) Next, the inventors tried to reproduce the effects obtained with the cells as deposited under DSM ACC3321 with other conventional MCF-7 cells, namely MCF-7/BOS provided by Prof. Ana Soto (Tufts University School of Medicine, Boston, Mass., USA) and the MCF-7/ACC115 clone obtained from the Leibniz-Institut DSMZ-Deutsche Sammlung von Mikroorganismen and Zellkulturen GmbH (Braunschweig, Germany).
(§2) Briefly, the MCF-7 cells were seeded and grown on glass coverslips in multi-well tissue culture plates (TPP) for 24 h to reach near 100% confluence and then treated for at least 48 h with 0.1% EtOH (solvent control) and the ERα antagonist fulvestrant (Sigma-Aldrich, CAS-No. 129453-61-8) at a concentration of 10^−8 M. During experiments, medium was exchanged on a daily basis. All experiments were performed at 37° C. with 5% CO2 in reduced-serum medium (phenol red-free DMEM (Gibco), 5% FBS (Biochrom, S 0615, LOT1353 W), 1% glutamine, 100 μg/ml streptomycin/100 U/ml penicillin (Biochrom)).

MCF-7/vBOS cells = test: Adherens junction stability: cell rounding after EGTA-containing medium (live imaging); details: pre-treated 48 hours; EGTA 8×10^−3 M, 120 minutes; vs control cells
Method: FIG. 9 provides a CellProfiler/CellProfiler-Analyst-based quantification (analogous to FIG. 7) showing the rate of cell rounding over the course of 120 minutes in MCF7/vBOS cells pre-treated with fulvestrant for 48 hours (dotted bars) compared to solvent control cells (black bars). Indicated time points depict time after application of EGTA-containing medium (EGTA, 8×10^−3 M) to disrupt adherens junctions. Biological replicates, n=3. Error bars, mean+/−s.e.m. Statistical testing, one-way ANOVA with Sidak's correction for multiple comparisons; *, p<0.05; **, p<0.01; ***, p<0.005; ****, p<0.001. Scale bar, 50 μm.
In a further set of experiments, the inventors tested whether the anti-estrogen-mediated reorganization of adherens junctions likewise increased adherens junction stability in MCF-7/vBOS cells. Therefore, EGTA-containing medium (8×10^−3 M) was applied to both control cells and cells pre-treated for 48 hours with fulvestrant to disrupt homophilic E-Cadherin binding, and the fraction of rounded cells was monitored over the course of 120 minutes by live imaging. Quantification of rounded cells vs. non-rounded cells was done in analogous manner as described above in example 7 for quantification of continuous and discontinuous adherens junctions.

MCF-7/ACC115 cells = test: Adherens junction morphology upon fulvestrant in MCF-7/ACC115 cells; details: 10^−8 M, 48 h
Method: as §1, §2

[1] = system: MCF7/vBOS cells (DSM ACC3321); test: Formation of discontinuous basolateral adherens junctions upon anti-estrogen exposure (E-Cadherin immunofluorescence); details: for formation of discontinuous adherens junctions (E-Cadherin staining): concentration and incubation time per compound as in FIGS. 1-3
Text: The time usually required for formation of discontinuous basolateral adherens junctions will depend on the estrogen receptor binding affinity and concentration of the anti-estrogen used on the one hand and the cell used on the other hand, but a person skilled in the art will be readily capable of determining the appropriate time spans and concentration for a given anti-estrogen and cell. For example, if the cell is a cell as deposited under accession number DSM ACC3321, suitable concentration ranges and culture times for manifestation of the discontinuous basolateral adherens junctions phenotype in presence of fulvestrant, tamoxifen, ZK 164015, MPP dihydrochloride, and (Z)-4-hydroxytamoxifen, without being limited thereto, are:
MCF7/vBOS cells were grown on glass coverslips in multi-well tissue culture plates (TPP) for 24 h and then treated for at least 48 h with 0.1% EtOH (solvent control) and different concentrations (10^−11 M, 10^−10 M, 10^−9 M, 10^−8 M, 10^−7 M) of the ERα antagonist fulvestrant (Sigma-Aldrich, CAS-No. 129453-61-8). During experiments, medium was exchanged on a daily basis. All experiments were performed at 37° C. with 5% CO2 in reduced-serum medium (phenol red-free DMEM (Gibco), 5% FBS (Biochrom, S 0615, LOT1353 W), 1% glutamine, 100 μg/ml streptomycin/100 U/ml penicillin (Biochrom)).
After treatment with fulvestrant the adherens junction morphology of the cells was analysed by means of immunofluorescence microscopy. Briefly, cells were fixed with 3.7% formaldehyde in PBS for 15 min, permeabilized with 0.2% Triton X-100 in PBS for 30 min, and blocked with 5% FBS in PBS for 60 min (all steps at room temperature). Incubation with primary and secondary antibodies in PBS containing 1.5% BSA was carried out over night at 4° C. and for 1 h at room temperature, respectively. The following antibodies/dyes were used: anti-E-Cadherin (H-108, Santa Cruz); DAPI (Roche); secondary antibody conjugated to Cy3 (alternatives are, e.g.: Cy2, Alexa Fluor 488/555/647; all Invitrogen). The samples were then mounted in Dako fluorescence mounting medium (Dako) or VectaShield (Vector Labs). All images were acquired with an Axio Observer.Z1 widefield microscope equipped with an Apotome.2 device for optical sectioning using structured illumination (Zeiss). After 48 hours the fraction of cells displaying discontinuous adherens junctions was determined by CellProfiler/CellProfer-analyst software (see example 7).
In view of the results obtained with MCF7/vBOS cells upon exposure to fulvestrant the inventors speculated that a similar phenotype might be obtainable with other ERα antagonist as well. To test this hypothesis, the inventors used the ERα antagonists tamoxifen (Sigma-Aldrich, CAS-No. 10540-29-1), MPP dihydrochloride (Sigma-Aldrich, CAS-No. 911295-24-4), ZK164015 (Tocris, CAS-No. 177583-70-9), and (Z)-4-hydroxytamoxifen (Tocris, CAS-No. 68047-06-3). The same protocols as in example 2 were used with the following deviations: • Tamoxifen: Cells were grown for 24 h and then treated for 144 h with 10^−8 and 10^−6 M tamoxifen. • MPP dihydrochloride: Cells were grown for 24 h and then treated for 144 h with 10^−8 and 10^−6 M MPP dihydrochloride. • ZK164015: Cells were grown for 24 h and then treated for 48 h with 10^−9 and 10^−7 M ZK164015. • (Z)-4-hydroxytamoxifen: Cells were grown for 24 h and then treated for 72 h with 10^−9 and 10^−8 M (Z)-4-hydroxytamoxifen.
Subsequently, quantitative image analysis was performed using a pipeline that builds on the CellProfiler software (Carpenter et al., Genome Biol., 2006; 7(10):R100.) for segmentation and extraction of cellular parameters, and on the CellProfiler Analyst software (Jones et al., BMC Bioinformatics, 2008 Nov. 15; 9:482) for parameter-based classification of cells. In the segmentation process, primary objects (nuclei) were identified from DAPI staining by global thresholding using Otsu's method. […]

[2] = cell as deposited under DSM ACC3321

Structure (SMILES): C[C@]12CC[C@@H]3c4ccc(O)cc4C[C@@H](CCCCCCCCC[S+]([O-])CCCC(F)(F)C(F)(F)F)[C@H]3[C@@H]1CC[C@@H]2O (stereo partly shown) [Fulvestrant]
- adherens junctions morphology in absence and presence of fulvestrant (MCF-7/BOS cells): same continuous adherens junctions morphology
- rate of cell rounding (MCF-7/vBOS cells): significantly reduced
- adherens junctions morphology in absence and presence of fulvestrant (MCF-7/ACC115 cells): same continuous adherens junctions morphology
- activity in this assay relative to tamoxifen, ZK164015, MPP or (Z)-4-hydroxytamoxifen [1]: more active
- time after treatment within which discontinuous adherence junctions form [1]: two
- time within which discontinuous basolateral adherens junctions have stably formed [1]: 28 to 48 h
- stability of discontinuous basolateral adherens junctions without adding additional anti-estrogens ([1]; after stable formation): ≥ 72 h
- Concentration (M) suitable for manifestation of the discontinuous basolateral adherens junctions phenotype [1, 2]: 10^−9-10^−7 M
- Culture time (h) typically required for formation of discontinuous basolateral adherens junctions [1, 2]: 24 to 96 h
- formation of discontinuous adherens junctions (E-Cadherin staining) [1]: triggers the formation of discontinuous adherence junctions
- formation of discontinuous adherens junctions (E-Cadherin staining) ([1]; listed as fulvestrant): formation of discontinuous adherens junctions; also recorded: morphology changes
- fraction of cells with continuous / discontinuous adherens junctions (CellProfiler quantification) ([1]; different concentrations, 48 hours): fraction of cells with continuous adherens junctions decreased while the fraction of cells with discontinuous adherens junctions increased
- minimal concentration for appearance of discontinuous adherens junctions ([1]; treatment for 48 hours, 10^−11 to 10^−7 M tested): 10^−9 M
